Drawing on PubChem BioAssay (NCI), this text covers GI50 and TGI for 14 molecules.

Test in all cases: NCI-60 cell line screen, 48 h
For assay [1], the system named is CCRF-CEM leukemia.
In assay [2] the test system is HL-60(TB) leukemia.
The subject of assay [3] is HOP-92 NSCLC.
Assay [4] deals with LOX IMVI melanoma.
The subject of assay [5] is MOLT-4 leukemia.
Assay [6] deals with NCI-H226 lung.
Assay [7] relates to NCI-H522 lung.
For assay [8], the system named is SK-MEL-2 melanoma.
Assay [9] has as its system SK-MEL-28 melanoma.
Assay [10] deals with SK-OV-3 ovarian.

“And” between values parts separate entries of the source, which are not always exact repeats. Equal values may be shown once.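 A five-concentration, 48-hour dose response in 96-well plates underlies each endpoint, interpolated linearly between surrounding concentrations. Abbreviation: GI50, concentration required for 50% inhibition of growth. TGI denotes the concentration required for complete inhibition of growth.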

In the case of `CC1=C(SCCC(=O)OC(C[Se]C2=C(C)C(=O)c3ccccc3C2=O)C(=O)NCCCCCC(=O)OCc2ccccc2)C(=O)c2ccccc2C1=O` (stereo not drawn), the GI50 in [1] was 2.82 µM; in assay [2], 3.09 µM; in [3], 2.7 µM; in assay [4], 2.75 µM; in [5] it was 4.08 µM; in assay [6], 19.5 µM. Further, the GI50 in assay [7] was 3.96 µM; in assay [8], 5.5 µM; in assay [9] it was 11.9 µM; in assay [10] it was 7.1 µM. Besides, the TGI is above 100 µM in assay [1]; 8.52 µM in assay [2]; 7.89 µM in assay [3]; 11.5 µM in assay [4]; above 100 µM in assay [5]; 51.3 µM in assay [6]. Besides, the TGI amounted to 15 µM in assay [7], 18.9 µM in [8], 24.7 µM in assay [9] and 19.7 µM in [10].

Regarding `O=C(/C=C\c1ccc([N+](=O)[O-])cc1)c1ccccc(=O)c1O`, the TGI in [1] is 0.532 µM; in assay [2], 1.63 µM; in [3], 7.77 µM; in [4] it was 2.86 µM; in assay [5], above 21.8 µM; in assay [6], 6.7 µM. For the same molecule, the TGI was 6.63 µM in [7], 6.93 µM in assay [8], 3.75 µM in assay [9] and 17.2 µM in assay [10].

In the case of `O=C1C(c2ccc(Br)cc2)=[N+]([O-])c2ccccc21`, the TGI was determined as 22.6 µM in assay [1]; 12.4 µM in assay [2]; 20.1 µM in [3]; 21.7 µM in [4]; 26.6 µM in [5]; 35.3 µM in assay [6]. Moreover, the TGI in assay [7] is 11.8 µM; in assay [8], 57.6 µM; in assay [9], 35.2 µM; in assay [10] it was above 100 µM.

For `COc1ccc(C/C(=C(\C)c2ccc(OCCN3CCCC3)cc2)c2ccc(OCCN3CCCC3)cc2)cc1`, the GI50 in assay [1] was 1.8 µM; in assay [2], 1.67 µM; in assay [3], 1.96 µM; in assay [4], 1.73 µM; in assay [5] it was 1.94 µM; in [6], 2.54 µM. Also, the GI50 was 1.86 µM in [7], 1.87 µM in assay [8], 1.82 µM in assay [9] and 1.86 µM in assay [10]. Further, the TGI was determined as 4.51 µM in assay [1]; 3.63 µM in [2]; 8.25 µM in [3]; 3.18 µM in assay [4]; 4.51 µM in assay [5]; 7.64 µM in assay [6]. Besides, the TGI in assay [7] is 3.53 µM; in assay [8], 3.53 µM; in [9] it was 3.3 µM; in assay [10], 3.68 µM.

Turning to `CCOC(=O)Oc1cc2c(c(OC)c1OC)-c1ccc(OC)c(=O)cc1C(NC(C)=O)CC2` (stereo not drawn), the TGI in assay [1] is above 21.5 µM; in [2] it was 0.0298 µM; in assay [3], 28.7 µM; in [4], above 100 µM; in assay [5], 22.9 µM; in assay [6], 0.787 µM. Besides, the TGI in [7] was 0.0271 µM; in assay [8], above 17.1 µM; in assay [9], above 100 µM; in assay [10], 98.1 µM.

Regarding `COc1ccc(/C(COc2ccc3oc(-c4ccccc4)cc(=O)c3c2)=N\O)cc1`, the GI50 in [1] was 0.346 µM; in assay [3], above 31.2 µM; in assay [4], 0.0322 µM; in assay [5], 0.678 µM; in assay [6], 12.3 µM; in [7], 1.87 µM. Further, the GI50 in assay [8] is 32.1 µM; in assay [9], 0.65 µM; in assay [10] it was 0.747 µM. The TGI in [1] was above 50 µM; in [2], above 23.2 µM; in assay [3], above 50 µM; in assay [4], 2.69 µM; in [5], above 50 µM; in [6] it was above 50 µM. In addition, the TGI is 39.5 µM in assay [7], above 50 µM in assay [8], 5.13 µM in assay [9] and above 33.5 µM in assay [10].

Regarding `CNC(=O)c1cc(Oc2ccc(NC(=O)Nc3ccc(Cl)c(C(F)(F)F)c3)c(F)c2)ccn1`, the GI50 is 2.24 µM and 2.51 µM in assay [1]; 0.518 µM and 0.539 µM in assay [2]; 0.822 µM and 0.74 µM in assay [3]; 1.12 µM and 0.787 µM in [4]; 2.21 µM and 1.91 µM in [5]; 2.15 µM and 0.988 µM in [6]. The GI50 in assay [7] is 1.73 µM and 1.7 µM; in [8], 0.664 µM and 0.336 µM; in assay [9], 1.57 µM and 1.3 µM; in assay [10] it was 3.2 µM and 2.43 µM. In addition, the TGI is 7.01 µM and 8.88 µM in assay [1]; 2.68 µM and 4.1 µM in assay [2]; 5.55 µM and 5.15 µM in assay [3]; 6.93 µM and > 10 µM in [4]; 5.75 µM and 6.59 µM in [5]; 8.01 µM and 8.05 µM in [6]. Moreover, the TGI in assay [7] was 5.84 µM and 6.43 µM; in [8], 2.13 µM and 1.86 µM; in assay [9], 6.28 µM and 8.13 µM; in [10] it was 12.3 µM and 8.49 µM.

In the case of `COc1cccc(CC(C)=C(c2ccc(OCCN3CCCCC3)cc2)c2ccc(OCCN3CCCCC3)cc2)c1`, the GI50 in [1] is 1.71 µM; in assay [2], 1.78 µM; in assay [3], 0.612 µM; in assay [4], 1.64 µM; in assay [5], 1.5 µM; in assay [6] it was 2.33 µM. Also, the GI50 in assay [7] is 2.16 µM; in assay [8], 2.73 µM; in assay [9], 2.12 µM; in assay [10], 2.2 µM. The TGI worked out at 4.73 µM in assay [1]; 4.12 µM in assay [2]; 2.59 µM in [3]; 3.52 µM in assay [4]; 4.01 µM in assay [5]; 5.12 µM in assay [6]. Moreover, the TGI in assay [7] was 4.53 µM; in assay [8], 5.71 µM; in [9], 4.11 µM; in [10], 4.23 µM.

As for `COc1ccc(CN2c3ccccc3Sc3ccccc32)c(C(F)(F)F)c1`, the GI50 was 0.454 µM in assay [1]; 0.412 µM in assay [2]; 0.227 µM in assay [3]; 0.832 µM in assay [4]; 2.88 µM in assay [5]; 10.4 µM in assay [6]. The GI50 in assay [7] is 0.314 µM; in assay [8], 1.18 µM; in assay [10] it was 0.557 µM. Also, the TGI in [1] was 26.5 µM; in [2], 13.9 µM; in assay [3], 44.9 µM; in assay [4], 33.3 µM; in assay [5] it was 43.4 µM; in assay [6], 56.3 µM. Further, the figures for the TGI in assay [7], in assay [8] and in assay [10] were 2.84 µM, 14.7 µM and above 100 µM, respectively.

On to `CN(C)C(=N/O)/C(=N\O)N(C)C`, for which the TGI in [1], in assay [2], in assay [3], in assay [4], in [5] and in assay [6] was above 100 µM throughout. Further, the TGI in assay [7], in assay [8], in assay [9] and in [10] was above 100 µM in each case.

Regarding `Cc1ccc(/C=N/Nc2nc(Nc3ccccc3)nc(-n3nc(C)cc3C)n2)cc1`, the GI50 in assay [1] was 3.72 µM; in [2], 2.51 µM; in assay [3] it was 2.28 µM; in [4], 3.81 µM; in assay [5], 2.4 µM; in assay [6] it was 4.88 µM. In addition, the GI50 in assay [7] was 2.67 µM; in assay [8] it was 5.72 µM; in assay [9] it was 6.12 µM; in assay [10] it was 11.8 µM. In addition, the TGI in assay [1] was above 100 µM; in assay [2] it was 84.8 µM; in [3] it was 10.9 µM; in assay [4] it was 22.1 µM; in assay [5] it was 8.53 µM; in assay [6], 37.7 µM. Also, the TGI is 6.48 µM in [7], 27 µM in assay [8], above 100 µM in assay [9] and above 100 µM in assay [10].

In the case of `c1ccc(C2OC3(CCC[C@H]4C[C@H]43)O[C@H]2c2ccccc2)cc1` (stereo partly drawn), the TGI in assay [1] is 49.9 µM; in assay [2] it was 41.1 µM; in assay [3] it was 66.2 µM; in assay [4], 56.8 µM; in assay [5], 63.9 µM; in assay [6], above 100 µM. For the same molecule, the TGI in [7] was 67.1 µM; in assay [8], 39.6 µM; in [10], above 100 µM.

Regarding `CC1=C(c2ccccc2)C(O)(c2ccccc2)C(C)C1=O` (stereo not drawn), the GI50 in assay [1] is 23.7 µM; in [2] it was 16.6 µM; in assay [3] it was 4.07 µM; in assay [4], 15.3 µM; in assay [5], 21.6 µM; in assay [6], 33.4 µM. Further, the GI50 was 29.7 µM in assay [8], 25.5 µM in assay [9] and 20 µM in assay [10]. Moreover, the TGI is above 100 µM in assay [1]; 87.4 µM in [2]; 65 µM in assay [3]; above 100 µM in assay [4]; above 100 µM in assay [5]; above 100 µM in assay [6]. For the same molecule, the TGI in assay [8], in [9] and in assay [10] was above 100 µM each time.

With `CC1=C(/C=C/C(C)=C/C2CC(N(C)C)=CC(=O)O2)C(C)(C)CCC1` (stereo not drawn), the TGI in [1] was found to be 22.3 µM; in [2], 16 µM; in assay [3], 31.1 µM; in assay [4], 30.3 µM; in [5], 19.9 µM; in [6], 25.8 µM. The values for the TGI in assay [8], in assay [9] and in assay [10] were 27.4 µM, 30.9 µM and 30.3 µM, respectively.
